The values that follow come from ChEMBL document CHEMBL1201862, “PubChem BioAssay data set” (2004).

Each structure is given as a SMILES string.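 Compound exposure: 48 hours, 5 concentrations, 96-well plates. GI50: concentration for 50% inhibition of growth.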 Activity calls are given as the source filed them. No stated cut-off is given here; in the data, active = GI50 up to about 1.1 µM and inactive = higher.

Among the test systems are SW-620; BT-549; LOX IMVI; MCF7; UACC-62; SF-268; IGROV-1; NCI-H226; ACHN; HL-60; UO-31; SK-MEL-2; SK-MEL-28; RXF 393; RPMI-8226; NCI/ADR-RES; SNB-19; U-251; MDA-MB-435; OVCAR-5.
Holding throughout (assay): growth of human tumour cells (NCI), 48 h

Take `c1csc(-c2ccc(-c3cccs3)c3nsnc23)c1`: the GI50 is 17.1 µM (inactive) in the test with SW-620; > 52.7 µM (inactive) in the test with BT-549; 26.3 µM (inactive) in the test with LOX IMVI; 0.11 µM (active) in the test on MCF7; > 100 µM (inactive) in the test on UACC-62; 33.7 µM (inactive) with SF-268. Moreover, the GI50 is 0.875 µM (active) with IGROV-1; > 33.5 µM (inactive) in the test with NCI-H226; > 65.2 µM (inactive) in the test with ACHN; 5.4 µM (inactive) with HL-60; 43.4 µM (inactive) in the test with UO-31; > 48.6 µM (inactive) in the test with SK-MEL-2. The GI50 in the test with SK-MEL-28 is 20.2 µM (inactive); with RXF 393, > 22 µM (inactive); in the test with RPMI-8226, 12.2 µM (inactive); with NCI/ADR-RES it was > 49.5 µM (inactive); in the test on SNB-19 it was > 90.8 µM (inactive); in the test with U-251, 30.2 µM (inactive). In addition, in the test on MDA-MB-435, the GI50 was 31.4 µM (inactive).
Regarding `CNC(=O)N(CCC#N)CCCN(C(=O)N(C)C)c1ccccc1`, the GI50 in the test with SW-620, in the test with OVCAR-5, in the test with BT-549, in the test with LOX IMVI, in the test with MCF7 and in the test with UACC-62 was > 100 µM (inactive) in each case. For the same compound, the GI50 in the test on SF-268, with IGROV-1, with NCI-H226, with ACHN, with HL-60 and with UO-31 was > 100 µM (inactive) throughout. The GI50 in the test with SK-MEL-2, with SK-MEL-28, with RXF 393, with RPMI-8226, in the test with NCI/ADR-RES and with SNB-19 was > 100 µM (inactive) throughout. Further, the GI50 in the test on U-251 and in the test on MDA-MB-435 was > 100 µM (inactive) each time.
Take `O=C(/C=C\c1ccc(-c2ccccc2)cc1)c1cccs1`: the GI50 is 5.41 µM (inactive) with SW-620; 45.2 µM (inactive) with OVCAR-5; 15.6 µM (inactive) in the test with BT-549; 3.88 µM (inactive) in the test with LOX IMVI; 3.56 µM (inactive) in the test on MCF7; 16.4 µM (inactive) in the test with UACC-62. Also, the GI50 with SF-268 is 22.5 µM (inactive); in the test on IGROV-1, 29.4 µM (inactive); in the test on NCI-H226 it was > 69.8 µM (inactive); in the test with ACHN, 32.3 µM (inactive); in the test with HL-60, 3.89 µM (inactive); with UO-31, 16.6 µM (inactive). For the same compound, the GI50 in the test on SK-MEL-2 was 39.4 µM (inactive); in the test with SK-MEL-28, > 100 µM (inactive); with RXF 393 it was 10.9 µM (inactive); with RPMI-8226, 3.23 µM (inactive); in the test on NCI/ADR-RES it was 26.7 µM (inactive); in the test on SNB-19, > 59.2 µM (inactive). For the same compound, the GI50 was 5.09 µM (inactive) in the test with U-251 and 17.5 µM (inactive) in the test with MDA-MB-435.
As to `COc1ccc(/C=C/c2cc(=O)cc(/C=C/c3ccc(OC)c(O)c3)o2)cc1O`, the GI50 is 2.71 µM (inactive) with SW-620; 9.4 µM (inactive) in the test with OVCAR-5; 2.65 µM (inactive) in the test on BT-549; 1.76 µM (inactive) with LOX IMVI; 2.14 µM (inactive) in the test on MCF7; 1.75 µM (inactive) with UACC-62. The GI50 in the test with SF-268 is 3.02 µM (inactive); in the test on IGROV-1, 3.22 µM (inactive); with NCI-H226, 5.21 µM (inactive); in the test with ACHN, 2.48 µM (inactive); with HL-60, 2 µM (inactive); with UO-31, 3.83 µM (inactive). The GI50 in the test with SK-MEL-2 is 2.69 µM (inactive); with SK-MEL-28 it was 3.56 µM (inactive); in the test with RXF 393 it was 1.11 µM (active); in the test on RPMI-8226, 0.317 µM (active); in the test on NCI/ADR-RES it was 2.89 µM (inactive); in the test with SNB-19, 4.84 µM (inactive). Moreover, the GI50 in the test on U-251 is 1.94 µM (inactive); in the test on MDA-MB-435, 0.971 µM (active).
For `O=C1c2cccc3cccc(c23)C(=O)N1CCCNCCCNCCCCNCCCNCCCN1C(=O)c2cccc3cccc(c23)C1=O`, the GI50 is 2.03 µM (inactive) in the test on SW-620; 6.14 µM (inactive) in the test on OVCAR-5; 3.74 µM (inactive) in the test on BT-549; 2.55 µM (inactive) with LOX IMVI; 0.449 µM (active) in the test with MCF7; 2.82 µM (inactive) with UACC-62. Moreover, the GI50 with SF-268 was 1.93 µM (inactive); with IGROV-1, 1.96 µM (inactive); in the test with NCI-H226, 4.46 µM (inactive); in the test on ACHN, 3.97 µM (inactive); in the test with HL-60 it was 0.27 µM (active); with UO-31, 13.1 µM (inactive). For the same compound, the GI50 in the test on SK-MEL-2 is 4.01 µM (inactive); with SK-MEL-28, 2.46 µM (inactive); with RXF 393, 3.34 µM (inactive); with RPMI-8226 it was 1.33 µM (inactive); in the test with NCI/ADR-RES, 14.7 µM (inactive); with SNB-19, 2.28 µM (inactive). The GI50 was 1.84 µM (inactive) in the test with U-251 and 2.73 µM (inactive) in the test on MDA-MB-435.
Turning to `c1ccc2c(c1)CCN(C1=NCCO1)C2`, the GI50 in the test with SW-620, in the test on OVCAR-5, in the test with BT-549, in the test on LOX IMVI, in the test with MCF7 and with UACC-62 was > 10 µM (inactive) in each case. Moreover, the GI50 with SF-268, in the test with IGROV-1, in the test with NCI-H226, with ACHN, in the test on HL-60 and in the test with UO-31 was > 10 µM (inactive) each time. The GI50 in the test on SK-MEL-2, with SK-MEL-28, in the test on RXF 393, in the test on RPMI-8226, in the test on NCI/ADR-RES and with SNB-19 was > 10 µM (inactive) throughout. The GI50 in the test with U-251 and with MDA-MB-435 was > 10 µM (inactive) in each case.
Turning to `O=C(c1ccc(Cl)cc1)N(C(=O)N1CCC(c2ccccc2)CC1)c1ccccc1`, the GI50 with SW-620 is 92 µM (inactive); with OVCAR-5, 0.558 µM (active); in the test with BT-549, 19.5 µM (inactive); with LOX IMVI, 28.1 µM (inactive); with MCF7 it was 39.4 µM (inactive); in the test with UACC-62, 31.8 µM (inactive). Also, the GI50 with SF-268 is 82 µM (inactive); in the test with IGROV-1, 17.9 µM (inactive); in the test on NCI-H226, 17.8 µM (inactive); with ACHN, 57.8 µM (inactive); in the test on HL-60, 17.1 µM (inactive); in the test on UO-31, 12.1 µM (inactive). The GI50 in the test on SK-MEL-2 was 37.2 µM (inactive); in the test with SK-MEL-28, 45.2 µM (inactive); with RXF 393 it was 11.9 µM (inactive); in the test with RPMI-8226, 13.7 µM (inactive); in the test on NCI/ADR-RES, 16.6 µM (inactive); with SNB-19, 72.1 µM (inactive). The GI50 in the test on U-251 is 39.5 µM (inactive); in the test on MDA-MB-435 it was 25.8 µM (inactive).
With `CN(/N=C\c1ccc2ccccc2c1)C1=NCCN1`, the GI50 is 19.1 µM (inactive) in the test on SW-620; 34.8 µM (inactive) with OVCAR-5; 12.1 µM (inactive) with BT-549; 11.2 µM (inactive) in the test with LOX IMVI; 16.3 µM (inactive) in the test on MCF7; 18.3 µM (inactive) with UACC-62. The GI50 is 27.5 µM (inactive) in the test with SF-268; 19.5 µM (inactive) with IGROV-1; 16.3 µM (inactive) in the test with NCI-H226; 23.1 µM (inactive) in the test on ACHN; 10.4 µM (inactive) in the test with HL-60; 13.2 µM (inactive) in the test with UO-31. Moreover, the GI50 with SK-MEL-2 was 15.2 µM (inactive); in the test on SK-MEL-28 it was 13.6 µM (inactive); with RXF 393, 8.63 µM (inactive); in the test with RPMI-8226 it was 17.3 µM (inactive); with NCI/ADR-RES, 20.6 µM (inactive); in the test with U-251, 18 µM (inactive). In addition, in the test with MDA-MB-435, the GI50 is 15.6 µM (inactive).
As to `c1ccc2c(c1)[n-]n1c3ccc4nonc4c3n[n+]21`, the GI50 is > 100 µM (inactive) in the test on SW-620; > 100 µM (inactive) with OVCAR-5; > 100 µM (inactive) in the test with BT-549; > 100 µM (inactive) in the test on LOX IMVI; 60.5 µM (inactive) in the test with MCF7; > 100 µM (inactive) in the test on UACC-62. The GI50 in the test on IGROV-1, in the test with NCI-H226, in the test with ACHN, with HL-60, in the test with UO-31 and in the test on SK-MEL-2 was > 100 µM (inactive) throughout. Moreover, the GI50 with SK-MEL-28, in the test with RXF 393, with RPMI-8226, with NCI/ADR-RES, with SNB-19 and in the test with U-251 was > 100 µM (inactive) throughout. In addition, in the test on MDA-MB-435, the GI50 is > 100 µM (inactive).
As to `CN1CC[C@]23c4c5ccc(O)c4OC2c2[nH]ncc2C[C@H]3[C@H]1C5` (stereo partly specified), the GI50 in the test with OVCAR-5, in the test on BT-549, in the test on LOX IMVI, in the test with MCF7, with UACC-62 and with SF-268 was > 100 µM (inactive) in each case. Moreover, the GI50 in the test on IGROV-1, in the test on NCI-H226, in the test with ACHN, in the test with HL-60, in the test with UO-31 and in the test on SK-MEL-2 was > 100 µM (inactive) each time. The GI50 with SK-MEL-28, with RXF 393, in the test on RPMI-8226, in the test on NCI/ADR-RES, in the test with SNB-19 and in the test with U-251 was > 100 µM (inactive) throughout. Moreover, in the test on MDA-MB-435, the GI50 was > 100 µM (inactive).
